Measured values taken from ChEMBL document CHEMBL1159141, “Synthesis and biology of substituted 3-phenyl taxol analogues” (1994).

What was measured:
B16 = test: In vitro concentration which causes 50% inhibition of proliferation of B16 melanoma cells, activity relative to taxol (ED50=1); format: functional, Mus musculus
[1] = target: Tubulin alpha chain (Sus scrofa) (UniProt P02550); test: In vitro concentration which causes polymerization of 50% of the tubulin, activity relative to taxol (ED50=1); format: functional
Sequence of Tubulin alpha chain (Sus scrofa) (P02550 whole entry, looked up): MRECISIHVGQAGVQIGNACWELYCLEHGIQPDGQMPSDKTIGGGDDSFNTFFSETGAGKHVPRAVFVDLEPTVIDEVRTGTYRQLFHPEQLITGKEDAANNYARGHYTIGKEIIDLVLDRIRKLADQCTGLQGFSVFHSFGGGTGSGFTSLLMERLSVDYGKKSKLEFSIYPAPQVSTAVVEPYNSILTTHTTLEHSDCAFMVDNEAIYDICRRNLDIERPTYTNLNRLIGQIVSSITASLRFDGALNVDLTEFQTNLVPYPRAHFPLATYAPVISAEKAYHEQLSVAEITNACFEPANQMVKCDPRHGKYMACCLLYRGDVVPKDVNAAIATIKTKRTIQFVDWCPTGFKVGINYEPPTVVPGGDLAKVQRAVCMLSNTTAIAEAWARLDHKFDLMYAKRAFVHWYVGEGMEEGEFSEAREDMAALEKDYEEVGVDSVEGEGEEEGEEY

HCT-116 = test: In vitro concentration which causes 50% inhibition against HCT116 cell line, activity relative to taxol (ED50=1); format: functional, Homo sapiens

| Structure (SMILES) | ED50 ratio [1] | ED50 ratio (B16) | ED50 ratio (HCT-116) |
| --- | --- | --- | --- |
| COc1ccc([C@@H](NC(=O)c2ccccc2)[C@@H](O)C(=O)O[C@H]2C[C@@]3(O)[C@@H](OC(=O)c4ccccc4)[C@@H]4[C@]5(OC(C)=O)CO[C@@H]5C[C@H](O)[C@@]4(C)C(=O)[C@H](OC(C)=O)C(=C2C)C3(C)C)cc1 | 0.5 | 1 | – |
| CC(=O)O[C@H]1C(=O)[C@@]2(C)[C@H]([C@H](OC(=O)c3ccccc3)[C@]3(O)C[C@H](OC(=O)[C@H](O)[C@H](NC(=O)c4ccccc4)c4ccc(F)cc4)C(C)=C1C3(C)C)[C@]1(OC(C)=O)CO[C@@H]1C[C@@H]2O | 1.1 | 1.2 | – |
| CC(=O)O[C@H]1C(=O)[C@@]2(C)[C@H]([C@H](OC(=O)c3ccccc3)[C@]3(O)C[C@H](OC(=O)[C@H](O)[C@H](NC(=O)c4ccccc4)c4ccc(Cl)c(Cl)c4)C(C)=C1C3(C)C)[C@]1(OC(C)=O)CO[C@@H]1C[C@@H]2O | 7.1 | 40 | – |
| CC(=O)O[C@H]1C(=O)[C@@]2(C)[C@H]([C@H](OC(=O)c3ccccc3)[C@]3(O)C[C@H](OC(=O)[C@H](O)[C@H](NC(=O)c4ccccc4)c4ccc(Cl)cc4)C(C)=C1C3(C)C)[C@]1(OC(C)=O)CO[C@@H]1C[C@@H]2O | 1.9 | 2.2 | – |
| CC(=O)O[C@H]1C(=O)[C@@]2(C)[C@H]([C@H](OC(=O)c3ccccc3)[C@]3(O)C[C@H](OC(=O)[C@H](O)[C@H](NC(=O)c4ccccc4)c4ccc([N+](=O)[O-])cc4)C(C)=C1C3(C)C)[C@]1(OC(C)=O)CO[C@@H]1C[C@@H]2O | 1.1 | – | 35 |

Continued, in another order:

| ED50 ratio [1] | Structure (SMILES) | ED50 ratio (B16) | ED50 ratio (HCT-116) |
| --- | --- | --- | --- |
| 4.4 | CC(=O)O[C@H]1C(=O)[C@@]2(C)[C@H]([C@H](OC(=O)c3ccccc3)[C@]3(O)C[C@H](OC(=O)[C@H](O)[C@H](NC(=O)c4ccccc4)c4cccc(Cl)c4)C(C)=C1C3(C)C)[C@]1(OC(C)=O)CO[C@@H]1C[C@@H]2O | 6.7 | – |
| 2.4 | CC(=O)O[C@H]1C(=O)[C@@]2(C)[C@H]([C@H](OC(=O)c3ccccc3)[C@]3(O)C[C@H](OC(=O)[C@H](O)[C@H](NC(=O)c4ccccc4)c4ccc(C)cc4)C(C)=C1C3(C)C)[C@]1(OC(C)=O)CO[C@@H]1C[C@@H]2O | 3 | – |
| 5.1 | CC(=O)O[C@H]1C(=O)[C@@]2(C)[C@H]([C@H](OC(=O)c3ccccc3)[C@]3(O)C[C@H](OC(=O)[C@H](O)[C@H](NC(=O)c4ccccc4)c4ccccc4C)C(C)=C1C3(C)C)[C@]1(OC(C)=O)CO[C@@H]1C[C@@H]2O | >33 | – |
| 1 | CC(=O)O[C@H]1C(=O)[C@@]2(C)[C@H]([C@H](OC(=O)c3ccccc3)[C@]3(O)C[C@H](OC(=O)[C@H](O)[C@@H](NC(=O)c4ccccc4)c4ccccc4)C(C)=C1C3(C)C)[C@]1(OC(C)=O)CO[C@@H]1C[C@@H]2O [PACLITAXEL] | 1 | – |
| 4.6 | CC(=O)O[C@H]1C(=O)[C@@]2(C)[C@H]([C@H](OC(=O)c3ccccc3)[C@]3(O)C[C@H](OC(=O)[C@H](O)[C@H](NC(=O)c4ccccc4)c4cccc(N(C)C)c4)C(C)=C1C3(C)C)[C@]1(OC(C)=O)CO[C@@H]1C[C@@H]2O | 5.8 | – |
